Data on 23 compounds can be found in patent US11180479B2 (HAPLOGEN GmbH, priority 2017, dated 2021).

In test [1] the target is T1, PLA2G16 (Homo sapiens, UniProt P53816).
T1 construct: Hexa-His (N); made in house; host or cells: E. coli BL21(DE3)
T1 sequence (P53816 1-162): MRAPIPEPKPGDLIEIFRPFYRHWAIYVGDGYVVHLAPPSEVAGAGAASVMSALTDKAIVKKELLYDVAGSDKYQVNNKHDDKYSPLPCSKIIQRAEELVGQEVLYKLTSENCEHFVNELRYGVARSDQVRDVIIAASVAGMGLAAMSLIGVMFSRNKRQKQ
Put plainly: Enzyme activity assay for PLA2G16 (Red/Green BODIPY PC-A2 fluorescence). Type of test: biochemical. Conditions: His-tagged PLA2G16, 4 min pre-incubation, compound 2 nM to 50 μM; first symbol in parentheses. The method in brief: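 N-His human PLA2G16 was expressed in E. coli and Ni-NTA purified. Enzyme in 5 mM glutathione was preincubated 4 min with compound (2 nM–50 μM final), then Red/Green BODIPY PC-A2 in DOPC/DOPG/cholesterol vesicles was added (50 mM Tris pH 8.5, 100 mM NaCl). Fluorescence increase (ex 480/em 530 nm) over 10 min gave activity; IC50 came from nonlinear regression.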

Test [2] relates to picornaviruses (CVB1, HRV-A2, HRV-A23, EV-68). Put plainly: Anti-picornavirus cytopathic effect (CPE) reduction assay on HeLa H1 cells. The settings on record: 48 h, category from averaging EC50 values of four picornaviruses (CVB1, HRV-A2, HRV-A23, EV68), second symbol in parentheses. The format is cell-based. The method in brief: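 HeLa H1 cells pre-treated 2 h with serial compound dilutions in 2% FBS DMEM, then infected at an MOI giving full CPE in 2 days; after 48 h, viability by CellTiterBlue fluorescence (560/590 nm) normalised to infected and uninfected vehicle controls; EC50 by non-linear regression, averaged over the four viruses.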

Structures are written as SMILES.

As for `Cc1cc(CN2C[C@H](C(=O)C(=O)NC3CC3)[C@@H](Cc3ccccc3)C2=O)on1` (racemic) [FP-46, Rac-2-[(3R,4R)-4-benzyl-1-[(3-methyl-1,2-oxazol-5-yl)methyl]-5-oxopyrrolidin-3-yl]-N-cyclopropyl-2-oxoacetamide], in test [1], the IC50 was less than 1000 nM. Also, the 50% effective concentration (EC50) in test [2] is 1000 to 10000 nM.
Turning to `Cn1ncnc1CN1C[C@@H](C(=O)C(=O)NC2CC2)[C@H](Cc2ccccc2)C1=O` (single isomer, unassigned) [FP-97], in test [1], the 50% inhibitory concentration (IC50) was 1000 to 10000 nM. In test [2], the EC50 was greater than 10000 nM.
For the compound `O=C(NC1CC1)C(=O)[C@H]1CN(c2ncccn2)C(=O)[C@@H]1Cc1ccccc1` (racemic) [FP-58, Rac-2-[(3R,4R)-4-benzyl-5-oxo-1-(pyrimidin-2-yl)pyrrolidin-3-yl]-N-cyclopropyl-2-oxoacetamide], in test [1], the IC50 is less than 1000 nM. Also, in test [2], the EC50 fell in the range of 1000 to 10000 nM.
On to `Cc1cc(CN2C[C@H](C(=O)C(=O)NC3CC3)[C@@H](Cc3ccccc3)C2=O)no1` (racemic) [FP-41, Rac-2-[(3R,4R)-4-benzyl-1-[(5-methyl-1,2-oxazol-3-yl)methyl]-5-oxopyrrolidin-3-yl]-N-cyclopropyl-2-oxoacetamide], for which, in test [1], the IC50 is less than 1000 nM. In addition, the EC50 in test [2] is less than 1000 nM.
As for `CC(F)(F)CNC(=O)C(=O)[C@H]1CNC(=O)[C@@H]1C1CCCCC1` (racemic) [FP-12, Rac-2-[(3R,4R)-4-cyclohexyl-5-oxopyrrolidin-3-yl]-N-(2,2-difluoropropyl)-2-oxoacetamide], the half-inhibitory concentration (IC50) in test [1] is less than 1000 nM. In addition, the concentration giving a half-maximal response (EC50) in test [2] was less than 1000 nM.
`CC(F)(F)CNC(=O)C(=O)[C@@H]1CNC(=O)[C@H]1c1ccccc1` (single isomer, unassigned) [FP-87]: in test [1], the concentration for half-maximal inhibition (IC50) fell in the range of 1000 to 10000 nM. Besides, the EC50 in test [2] was greater than 10000 nM.
As for `O=C(NCC(F)F)C(=O)[C@@H]1CNC(=O)[C@H]1Cc1ccccc1` (single isomer, unassigned) [FP-84], in test [1], the IC50 lay in the range of 1000 to 10000 nM. Also, the EC50 in test [2] is greater than 10000 nM.
As for `O=C(NC1CC1)C(=O)C1CC(=O)N(Cc2ccccc2)C1` (stereo not shown) [FP-104, 2-(1-Benzyl-5-oxopyrrolidin-3-yl)-N-cyclopropyl-2-oxoacetamide], the IC50 in test [1] is less than 1000 nM. Moreover, in test [2], the EC50 was in the range of 1000 to 10000 nM.
Take `O=C(NC1CCC1)C(=O)[C@H]1CNC(=O)[C@@H]1c1ccccc1` (racemic) [FP-19, Rac-N-cyclobutyl-2-oxo-2-[(3R,4S)-5-oxo-4-phenylpyrrolidin-3-yl]acetamide]: in test [1], the half-maximal inhibitory concentration (IC50) is less than 1000 nM. In addition, the 50% effective concentration (EC50) in test [2] was less than 1000 nM.
For `O=C(NC1CC1)C(=O)[C@H]1CN(CC2CCOCC2)C(=O)[C@@H]1Cc1ccccc1` (racemic) [FP-32, Rac-2-[(3R,4R)-4-benzyl-1-[(oxan-4-yl)methyl]-5-oxopyrrolidin-3-yl]-N-cyclopropyl-2-oxoacetamide], the IC50 in test [1] is less than 1000 nM. The concentration giving a half-maximal response (EC50) in test [2] is less than 1000 nM.
As to `COc1ccc(CN2C[C@H](C(=O)C(=O)NC3CC3)[C@@H](c3ccccc3)C2=O)cc1` (racemic) [FP-102, Rac-N-cyclopropyl-2-[(3R,4S)-1-[(4-methoxyphenyl)methyl]-5-oxo-4-phenylpyrrolidin-3-yl]-2-oxoacetamide], the IC50 in test [1] is less than 1000 nM. Also, in test [2], the EC50 is less than 1000 nM.
Turning to `O=C(NCC1CC(F)(F)C1)C(=O)[C@H]1CNC(=O)[C@@H]1c1ccccc1` (racemic) [FP-23, Rac-N-[(3,3-difluorocyclobutyl)methyl]-2-oxo-2-[(3R,4S)-5-oxo-4-phenylpyrrolidin-3-yl]acetamide], the IC50 in test [1] is less than 1000 nM. For the same compound, the EC50 in test [2] was less than 1000 nM.
For the compound `Cc1noc(CN2C[C@H](C(=O)C(=O)NC3CC3)[C@@H](Cc3ccccc3)C2=O)n1` (racemic) [FP-34, Rac-2-[(3R,4R)-4-benzyl-1-[(3-methyl-1,2,4-oxadiazol-5-yl)methyl]-5-oxopyrrolidin-3-yl]-N-cyclopropyl-2-oxoacetamide], in test [1], the concentration for half-maximal inhibition (IC50) was less than 1000 nM. Besides, the EC50 in test [2] was 1000 to 10000 nM.
For `Cc1cc(CN2C[C@H](C(=O)C(=O)NC(C)C)[C@@H](c3ccccc3)C2=O)no1` (racemic) [FP-101, Rac-2-[(3R,4S)-1-[(5-methyl-1,2-oxazol-3-yl)methyl]-5-oxo-4-phenylpyrrolidin-3-yl]-2-oxo-N-(propan-2-yl)acetamide] the same measures were less than 1000 nM and 1000 to 10000 nM.
For `CC(C)NC(=O)C(=O)[C@H]1CNC(=O)[C@@H]1c1ccccc1` (racemic) [FP-78, Rac-2-oxo-2-[(3R,4S)-5-oxo-4-phenylpyrrolidin-3-yl]-N-(propan-2-yl)acetamide] the same measures were less than 1000 nM and 1000 to 10000 nM.
For `O=C(NC1CC1)C(=O)[C@H]1CN(Cc2ccncn2)C(=O)[C@@H]1Cc1ccccc1` (racemic) [FP-37, Rac-2-[(3R,4R)-4-benzyl-5-oxo-1-[(pyrimidin-4-yl)methyl]pyrrolidin-3-yl]-N-cyclopropyl-2-oxoacetamide] the same measures were less than 1000 nM and 1000 to 10000 nM.
Consider `Cn1cc(N2C[C@H](C(=O)C(=O)NC3CC3)[C@@H](Cc3ccccc3)C2=O)cn1` (racemic) [FP-75, Rac-2-[(3R,4R)-4-benzyl-1-(1-methyl-1H-pyrazol-4-yl)-5-oxopyrrolidin-3-yl]-N-cyclopropyl-2-oxoacetamide], for which the IC50 in test [1] was less than 1000 nM. In test [2], the 50% effective concentration (EC50) is less than 1000 nM.
Consider `CCNC(=O)C(=O)[C@H]1CN(c2cncnc2)C(=O)[C@@H]1Cc1ccccc1` (racemic) [FP-55, Rac-2-[(3R,4R)-4-benzyl-5-oxo-1-(pyrimidin-5-yl)pyrrolidin-3-yl]-N-ethyl-2-oxo-acetamide], for which the IC50 in test [1] is less than 1000 nM. Besides, in test [2], the EC50 is less than 1000 nM.
In the case of `O=C(NC1CC1)C(=O)[C@H]1CN(c2ccncn2)C(=O)[C@@H]1Cc1ccccc1` (racemic) [FP-61, Rac-2-[(3R,4R)-4-benzyl-5-oxo-1-(pyrimidin-4-yl)pyrrolidin-3-yl]-N-cyclopropyl-2-oxoacetamide], the IC50 in test [1] was less than 1000 nM. In test [2], the EC50 was in the range of 1000 to 10000 nM.
For the compound `Cc1ncncc1N1C[C@H](C(=O)C(=O)NCC(C)(F)F)[C@@H](Cc2ccccc2)C1=O` (racemic) [FP-68, Rac-2-[(3R,4R)-4-benzyl-1-(4-methylpyrimidin-5-yl)-5-oxopyrrolidin-3-yl]-N-(2,2-difluoropropyl)-2-oxoacetamide], the half-maximal inhibitory concentration (IC50) in test [1] is less than 1000 nM. Besides, in test [2], the EC50 was in the range of 1000 to 10000 nM.
As to `Cn1cc(N2C[C@H](C(=O)C(=O)NCC(C)(F)F)[C@@H](Cc3ccccc3)C2=O)cn1` (racemic) [FP-76, Rac-2-[(3R,4R)-4-benzyl-1-(1-methyl-1H-pyrazol-4-yl)-5-oxopyrrolidin-3-yl]-N-(2,2-difluoropropyl)-2-oxoacetamide], in test [1], the concentration for half-maximal inhibition (IC50) is less than 1000 nM. The EC50 in test [2] was less than 1000 nM.
For the compound `O=C(NOC1CCCCC1)C(=O)[C@H]1CNC(=O)[C@@H]1Cc1ccccc1` (racemic) [FP-9, Rac-2-[(3R,4R)-4-benzyl-5-oxopyrrolidin-3-yl]-N-(cyclohexyloxy)-2-oxoacetamide], the IC50 in test [1] is less than 1000 nM. Moreover, in test [2], the concentration for a half-maximal effect (EC50) lay in the range of 1000 to 10000 nM.
For `O=C(NC1CC1)C(=O)[C@H]1CN(c2cccc(OCc3ccccc3)n2)C(=O)[C@@H]1Cc1ccccc1` (racemic) [FP-69, Rac-2-[(3R,4R)-4-benzyl-1-[6-(benzyloxy)pyridin-2-yl]-5-oxopyrrolidin-3-yl]-N-cyclopropyl-2-oxoacetamide] the same measures were less than 1000 nM and less than 1000 nM.

In general, IC50 refers to the concentration that gives 50% inhibition. Broadly, the EC50 is the concentration at which the effect is half-maximal.
